Measured values: patent US6710049B2, “Azole compounds as anti-fungal agents” (Ranbaxy Laboratories Limited, priority 2000, dated 2004)
≈ marks a conversion by molar mass, not a printed value.

Legend:
[1] = test system: P variotii 22319; assay: MIC determination (NCCLS broth method); format: cell-based, Paecillomyces variotii; settings: read-out: Minimum Inhibitory Concentration (MIC)
From the text: (§1) The in-vitro evaluation of the antifungal activity of the compounds can be performed by determining the minimum inhibitory concentration (MIC) as shown in Table 1 which is the concentration of the test compound in Rosewell Park Memorial Institute (RPMI) 1640 liquid medium buffered with 3-(Morpholino)propanesulphonic acid (MOPS) to pH 7, at which there is significant inhibition of the particular fungi. In practice the National Committee for Clinical Laboratory Standard (NCCLS) M27A document for Candida and Cryptococcus and M38P for Aspergillus was used to determine the MIC against yeast and filamentous fungi with suitable modifications for dermatophytes to other filamentous fungi. Three quality control strains were included each time the MIC were determined and readings recorded only when the Quality Control results fell into the acceptable range. After MIC results had been recorded, 100 μl from each of the well showing no growth was spread over Sabouraud Dextrose Agar (SDA) to determine the minimum fungicidal concentration (MFC) as shown in Table 2.

[2] = test system: Mucor (Ceylon); assay: MIC determination (NCCLS broth method); format: cell-based; settings: read-out: Minimum Inhibitory Concentration (MIC)
Outline: (§2)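 Broth microdilution per NCCLS M27A (yeasts) and M38P (Aspergillus), modified for dermatophytes and other filamentous fungi; RPMI 1640 buffered with MOPS to pH 7. MIC is the lowest concentration giving significant growth inhibition. Wells showing no growth are subcultured onto Sabouraud Dextrose Agar to give the MFC.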

[3] = test system: Penicillium 1641; assay: MIC determination (NCCLS broth method); format: cell-based; settings: read-out: Minimum Inhibitory Concentration (MIC)
Outline: as §2

[4] = test system: C neoformans I; assay: MIC determination (NCCLS broth method); format: cell-based, Cryptococcus neoformans; settings: Cryptococcus neoformans, read-out: Minimum Inhibitory Concentration (MIC)
From the text: as §1

[5] = test system: C neoformans M-106; assay: MIC determination (NCCLS broth method); format: cell-based, Cryptococcus neoformans; settings: Cryptococcus neoformans, M106, read-out: Minimum Inhibitory Concentration (MIC)
From the text: as §1

[6] = test system: A fumigatus 1008; assay: MIC determination (NCCLS broth method); format: cell-based, Aspergillus fumigatus; settings: Aspergillus fumigatus, read-out: Minimum Inhibitory Concentration (MIC)
From the text: as §1

[7] = test system: A fumigatus I - 1011; assay: MIC determination (NCCLS broth method); format: cell-based, Aspergillus fumigatus; settings: Aspergillus fumigatus, I1011, read-out: Minimum Inhibitory Concentration (MIC)
From the text: as §1

[8] = test system: A fumigatus II - 1012; assay: MIC determination (NCCLS broth method); format: cell-based, Aspergillus fumigatus; settings: Aspergillus fumigatus, II1012, read-out: Minimum Inhibitory Concentration (MIC)
From the text: as §1

[9] = test system: A fumigatus J - 1032; assay: MIC determination (NCCLS broth method); format: cell-based, Aspergillus fumigatus; settings: Aspergillus fumigatus, J1032, read-out: Minimum Inhibitory Concentration (MIC)
From the text: as §1

[10] = test system: A fumigatus K - 1033; assay: MIC determination (NCCLS broth method); format: cell-based, Aspergillus fumigatus; settings: Aspergillus fumigatus, K1033, read-out: Minimum Inhibitory Concentration (MIC)
From the text: as §1

[11] = test system: A fumigatus L - 1034; assay: MIC determination (NCCLS broth method); format: cell-based, Aspergillus fumigatus; settings: Aspergillus fumigatus, L1034, read-out: Minimum Inhibitory Concentration (MIC)
From the text: as §1

[12] = test system: A fumigatus PGI - 1023; assay: MIC determination (NCCLS broth method); format: cell-based, Aspergillus fumigatus; settings: Aspergillus fumigatus, PGI1023, read-out: Minimum Inhibitory Concentration (MIC)
From the text: as §1

[13] = test system: A fumigatus SI-1 - 1019; assay: MIC determination (NCCLS broth method); format: cell-based, Aspergillus fumigatus; settings: Aspergillus fumigatus, SI11019, read-out: Minimum Inhibitory Concentration (MIC)
From the text: as §1

[14] = test system: Penicilliuim 2306; assay: MIC determination (NCCLS broth method); format: cell-based, Penicillium; settings: Penicillium, read-out: Minimum Inhibitory Concentration (MIC)
From the text: as §1

[15] = test system: P variotii 22319; assay: MFC determination (subculture on Sabouraud Dextrose Agar); format: cell-based, Paecillomyces variotii; settings: read-out: Minimum Fungicidal Concentration (MFC)
From the text: as §1

[16] = test system: A fumigatus 1008; assay: as above; format: cell-based, Aspergillus fumigatus; settings: Aspergillus fumigatus, read-out: Minimum Fungicidal Concentration (MFC)
From the text: as §1

[17] = test system: A fumigatus SI-1 - 1019; assay: as above; format: cell-based, Aspergillus fumigatus; settings: Aspergillus fumigatus, SI11019, read-out: Minimum Fungicidal Concentration (MFC)
From the text: as §1

[18] = test system: All Candida isolates; assay: Comparative in vitro MIC, isolate panel; format: cell-based; settings: for MIC50: read-out: MIC50; for MIC90: read-out: MIC90
From the text: as §1
(§3) A comparative in vitro and in vivo biologically activity data of the compound of our invention, 2-{[1R,2R]-2-(2,4-Difluorophenyl)-2-hydroxy-1-methyl-3-(1H-1,2,4-triazole-1-yl)propyl}-4-[(2′,2′,3′,3′-tetrafluoropropoxyphenyl)-3-(2H,4H)-1,2,4-thiotriazolone (Compound No. 3) with 2-[(1R,2R)-2-(2,4-difluorophenyl)-2-hydroxy-1-methyl-3-(1H-1,2,4-triazol-1-yl)propyl]-4-(2′,2′,3′,3′-tetraflouropropoxyphenyl)-3(2H,4H)-1,2,4-triazolone (TAK 187) and standard antifungal pharmaceuticals is given below: […]

[19] = test system: All Filamentous isolates; assay: Comparative in vitro MIC, isolate panel; format: cell-based
From the text: as §1, §3

[20] = test system: All fungal pathogens; assay: Comparative in vitro MIC, isolate panel; format: cell-based
From the text: as §1, §3

[21] = test system: Aspergillus fumigatus isolates; assay: Comparative in vitro MIC, isolate panel; format: cell-based; settings: for MIC50: read-out: MIC50; for MIC90: read-out: MIC90
From the text: as §1, §3

[22] = test system: Fusarium spp. isolates; assay: Comparative in vitro MIC, isolate panel; format: cell-based; settings: for MIC50: read-out: MIC50; for MIC90: read-out: MIC90
From the text: as §1, §3

[23] = test system: Penicillium spp. isolates; assay: Comparative in vitro MIC, isolate panel; format: cell-based; settings: for MIC50: read-out: MIC50; for MIC90: read-out: MIC90
From the text: as §1, §3

[24] = test system: Rhizoupus spp. isolates; assay: Comparative in vitro MIC, isolate panel; format: cell-based; settings: for MIC50: read-out: MIC50; for MIC90: read-out: MIC90
From the text: as §1, §3

[25] = test system: T. mentagrophyte; assay: Activity against dermatophytes; format: cell-based; set-up: unit not given here
From the text: as §1, §3

[26] = test system: T. rubrum; assay: Activity against dermatophytes; format: cell-based; set-up: unit not given here
From the text: as §1, §3

[27] = test system: Aspergillus fumigatous; assay: In vivo anti-fungal activity, ED50 in systemically infected mice; set-up: species or system Swiss albino mice; settings: mice infected i.v. with Aspergillus fumigatous, dosing for five days
Method: The in-vivo evaluation of the compound can be carried out at a series of dose levels by oral or I. V. injection to mice which are inoculated I.V. with the minimum lethal dose of Candida albicans, Cryptococcus neoformans or Aspergillus fumigatus by the tail vein. Activity is based on the survival of a treated group of mice after the death of an untreated group of mice. For Aspergillus and Cryptococcus infections, target organs were cultured after treatment to document the number of mice cured of the infection for further assessment of activity.
Method: Briefly, Swiss albino mice weighing 20±2 G were injected intravenously (tail vein) with sufficient fungal cells to kill 100% of the untreated animals for Aspergillus fumigatous strain used. In all cases each group comprised of six mice. Five does levels, utilizing doubling dilution range, were employed per determination ranging from 25 to 1.56 mg/kg BW. Dosing was carried out for five days starting after 30 minutes of infection. […] Treated animals were monitored twice daily for 14 days post infection at which time the experiment was terminated and ED50 was calculated.

[28] = test system: Aspergillus species; settings: isolates of Aspergillus species; cited from earlier work
[29] = target: lanosterol 14α-de-methylase; settings: the target enzyme in the fungus; cited from earlier work

## CCC(C)n1ncn(-c2ccc(N3CCN(c4ccc(OCC5COC(Cn6cncn6)(c6ccc(Cl)cc6Cl)O5)cc4)CC3)cc2)c1=O (centres unmarked) [Itraconazole]
[1]
  MIC: 0.016 µg/mL (≈ 0.0227 µM)
[2]
  MIC: 0.125 µg/mL (≈ 0.177 µM)
[3]
  MIC: 0.25 µg/mL (≈ 0.354 µM)
[4]
  MIC: 0.03 µg/mL (≈ 0.0425 µM)
[5]
  MIC: 0.03 µg/mL (≈ 0.0425 µM)
[6]
  MIC: 0.06 µg/mL (≈ 0.085 µM)
[7]
  MIC: 0.06 µg/mL (≈ 0.085 µM)
[8]
  MIC: 0.06 µg/mL (≈ 0.085 µM)
[9]
  MIC: 0.03 µg/mL (≈ 0.0425 µM)
[10]
  MIC: 0.06 µg/mL (≈ 0.085 µM)
[11]
  MIC: 0.06 µg/mL (≈ 0.085 µM)
[12]
  MIC: 0.03 µg/mL (≈ 0.0425 µM)
[13]
  MIC: 0.03 µg/mL (≈ 0.0425 µM)
[14]
  MIC: 0.125 µg/mL (≈ 0.177 µM)
[15]
  MFC: 0.06 µg/mL (≈ 0.085 µM)
[16]
  MFC: 0.06 µg/mL (≈ 0.085 µM)
[17]
  MFC: 0.25 µg/mL (≈ 0.354 µM)
[18]
  MIC: 0.1 µg/mL (≈ 0.142 µM)
  MIC50: 0.25 µg/mL (≈ 0.354 µM)
  MIC90: 0.5 µg/mL (≈ 0.709 µM)
[19]
  MIC: 0.6 µg/mL (≈ 0.85 µM)
[19]; read-out: MIC50
  MIC50: 0.25 µg/mL (≈ 0.354 µM)
[19]; read-out: MIC90
  MIC90: 256 µg/mL (≈ 363 µM)
[20]
  MIC: 0.437 µg/mL (≈ 0.619 µM)
[20]; read-out: MIC50
  MIC50: 0.19 µg/mL (≈ 0.269 µM)
[20]; read-out: MIC90
  MIC90: 256 µg/mL (≈ 363 µM)
[21]
  MIC: 0.181 µg/mL (≈ 0.257 µM)
  MIC50: 0.25 µg/mL (≈ 0.354 µM)
  MIC90: 0.5 µg/mL (≈ 0.709 µM)
[22]
  MIC: 90.5 µg/mL (≈ 128 µM)
  MIC50: 64 µg/mL (≈ 90.7 µM)
  MIC90: 256 µg/mL (≈ 363 µM)
[23]
  MIC: 0.922 µg/mL (≈ 1.31 µM)
  MIC50: 0.5 µg/mL (≈ 0.709 µM)
  MIC90: 256 µg/mL (≈ 363 µM)
[24]
  MIC: 32 µg/mL (≈ 45.3 µM)
  MIC50: 16 µg/mL (≈ 22.7 µM)
  MIC90: 64 µg/mL (≈ 90.7 µM)
[25]
  Activity against dermatophytes: 0.125
[26]
  Activity against dermatophytes: 0.03
[27]; Day 7 post infection
  ED50: 8.84 mg/kg body weight
[27]; Day 14 post infection
  ED50: 21.02 mg/kg body weight

## OC(Cn1cncn1)(Cn1cncn1)c1ccc(F)cc1F [Fluconazole]
[1]
  MIC: > 128 µg/mL
[2]
  MIC: > 128 µg/mL
[3]
  MIC: 64 µg/mL (≈ 209 µM)
[4]
  MIC: 1 µg/mL (≈ 3.27 µM)
[5]
  MIC: 4 µg/mL (≈ 13.1 µM)
[6]
  MIC: > 128 µg/mL
[7]
  MIC: > 128 µg/mL
[8]
  MIC: > 128 µg/mL
[9]
  MIC: > 128 µg/mL
[10]
  MIC: > 128 µg/mL
[11]
  MIC: > 128 µg/mL
[12]
  MIC: > 128 µg/mL
[13]
  MIC: > 128 µg/mL
[14]
  MIC: > 128 µg/mL
[15]
  MFC: > 128 µg/mL
[16]
  MFC: > 128 µg/mL
[17]
  MFC: > 128 µg/mL
[18]
  MIC: 5.3 µg/mL (≈ 17.3 µM)
  MIC50: 8 µg/mL (≈ 26.1 µM)
  MIC90: 128 µg/mL (≈ 418 µM)
[19]
  MIC: 199 µg/mL (≈ 650 µM)
[20]
  MIC: 105 µg/mL (≈ 343 µM)
[21]
  MIC: 256 µg/mL (≈ 836 µM)
  MIC50: 256 µg/mL (≈ 836 µM)
  MIC90: 256 µg/mL (≈ 836 µM)
[22]
  MIC: 256 µg/mL (≈ 836 µM)
  MIC50: 256 µg/mL (≈ 836 µM)
  MIC90: 256 µg/mL (≈ 836 µM)
[23]
  MIC: 174 µg/mL (≈ 569 µM)
  MIC50: 256 µg/mL (≈ 836 µM)
  MIC90: 256 µg/mL (≈ 836 µM)
[24]
  MIC: 256 µg/mL (≈ 836 µM)
  MIC50: 256 µg/mL (≈ 836 µM)
  MIC90: 256 µg/mL (≈ 836 µM)
[25]
  Activity against dermatophytes: >128
[26]
  Activity against dermatophytes: >128
[28]
  minimum inhibitory concentration (MIC) values: 400 µg/mL (≈ 1310 µM)
[29]
  IC50: 4.8 µM
